*1 amine or outer side, *2 acyl side, *3 side chain or, on linkers, in order; H or OH if unused. Where a SMILES comes first, the peptide text is derived from it. Bridges are numbered along the chain shown (N, C = ends). [ ]: non-standard residue; d: D form. The star is where a group is joined. X126 = CC(C)C(=O)N1[C@H]2COC[C@@H]1C=C(c1ccc(F)cc1C[C@@H](C(=O)[*:2])N(C)[*:1])C2; X146 = CC(C)C(=O)N1[C@@H]2CC[C@H]1C=C(c1ccc(Cl)cc1C[C@@H](C(=O)[*:2])N(C)[*:1])C2; X205 = CC(C)C(=O)N1[C@@H]2COC[C@H]1C=C(c1ccc(F)cc1C[C@@H](C(=O)[*:2])N(C)[*:1])C2; X124 = CC(C)C(=O)N1[C@@H]2CC[C@H]1C=C(c1ccc(F)cc1C[C@@H](C(=O)[*:2])N(C)[*:1])C2; X7 = CC(C)C(=O)N1[C@H]2CC[C@@H]1C=C(c1ccc(F)cc1C[C@@H](C(=O)[*:2])N(C)[*:1])C2; NMePhe(2-(4-MorPh),5-Cl) = CN[C@@H](Cc1cc(Cl)ccc1-c1ccc(N2CCOCC2)cc1)C(=O)O; X87 = CN([C@@H](Cc1cc(F)ccc1-c1ccc(N2CCOCC2)cc1)C(=O)[*:2])[*:1]; X190 = CC(=O)N1CC(Oc2ncc(Cl)cc2C[C@@H](C(=O)[*:2])N(C)[*:1])C1; NMehhhLys(Me) = CN([C@@H](CCCCCCCN(C)[*:3])C(=O)[*:2])[*:1]; X159 = CN([C@@H](Cc1cc(Cl)cnc1Oc1cnn(C)c1)C(=O)[*:2])[*:1]; X206 = CN([C@@H](Cc1cc(Cl)cnc1Cc1cnn(C)c1)C(=O)[*:2])[*:1]; X163 = CN([C@@H](Cc1cc(Cl)ccc1N1CCOCC1)C(=O)[*:2])[*:1]; NMe(hhhLys) = CN([C@@H](CCCCCCCN[*:3])C(=O)[*:2])[*:1]; Oxane2carbonyl(2R-CF3) = O=C([C@@]1(C(F)(F)F)CCCCO1)*; X152 = CN([C@@H](Cc1cc(Cl)ccc1OC1CC1)C(=O)[*:2])[*:1]; cBuCO(3,3-F2-1-CF3) = O=C(C1(C(F)(F)F)CC(F)(F)C1)*; X133 = Cc1ncc(Cl)cc1C[C@@H](C(=O)[*:2])N(C)[*:1]; Pro(trans-4-F) = O=C(O)[C@@H]1C[C@@H](F)CN1; Gly(cPr) = N[C@H](C(=O)O)C1CC1
Experiments:
[1] = molecular target: T1, CyclinB1/CDK1 (Homo sapiens, UniProt P14635); test: Fluorescence Polarization (FP) competitive binding assay, Cyclin B1/Cdk1; conditions: 10 nM Cyclin B1/Cdk1, 2 nM FAM probe; average of 2-3 independent experiments; read-out: Cyclin B FP IC50;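 note: fluorescence polarization read after equilibration at room temperature, with IC50 taken from serially diluted dose-response curves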
T1 construct: purchased Eurofins, discovery 14-450

[2] = molecular target: T2, CyclinA2/CDK2 (Homo sapiens, UniProt P20248); test: Fluorescence Polarization (FP) competitive binding assay, Cyclin A2/Cdk2; conditions: 8 nM Cyclin A2/Cdk2, 2 nM FAM probe; average of 2-3 independent experiments; read-out: Cyclin A FP IC50;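 note: plates equilibrated two hours at room temperature before polarization reading, IC50 fitted from eight-concentration compound titration curves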
T2 construct: purchased CRELUX Protein Services

[3] = system: OVCAR3 cells; test: MTT proliferation assay, OVCAR3; assay type: cell-based; conditions: 5 days compound exposure, 1:3 serial dilution starting at 10 μM;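 note: compound given as an 8- or 10-point series, one day after plating, with exposure covering roughly 3-4 cell doublings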
[4] = system: NCI-H1048 cells; test: MTT proliferation assay, NCI-H1048; assay type: cell-based; conditions: 5 days compound exposure, 1:3 serial dilution starting at 10 μM;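 note: Dose-response in 96-well plates over 8 or 10 concentration points, with exposure spanning 3-4 cell doublings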
[5] = molecular target: T3, CyclinE1/CDK2 (Homo sapiens, UniProt P24864); test: Fluorescence Polarization (FP) competitive binding assay, Cyclin E1/Cdk2; conditions: 10 nM Cyclin E1/Cdk2, 2 nM FAM probe; average of 2-3 independent experiments; read-out: Cyclin E FP IC50;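 note: readings taken after two-hour equilibration at room temperature in HEPES buffer with NaCl, DTT, NP-40 and BSA, IC50 fitted from eight-concentration serial dilution series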
T3 construct: purchased Eurofins, discovery 14-475

SMILES	IC50 [1] [µM]	IC50 [2] [µM]	GI50 [3] [µM]	GI50 [4] [µM]	IC50 [5] [µM]
CC(C)C[C@@H]1NC(=O)[C@@H](N(C)C(=O)[C@@H](NC(=O)[C@@H]2C[C@@H](F)CN2C(=O)C2(C(F)(F)F)CC(F)(F)C2)C2CC2)CCCCCCCNC(=O)[C@H](Cc2cc(Cl)ccc2C2=C[C@@H]3CC[C@H](C2)N3C(=O)C(C)C)N(C)C1=O [Example 312] ({cBuCO(3,3-F2-1-CF3)}-[Pro(trans-4-F)][Gly(cPr)][NMe(hhhLys)]L[X146]; lactam 3-C)	0.02	0.02	0.03	0.02	0.74
CC(C)C[C@@H]1NC(=O)[C@@H](N(C)C(=O)[C@@H](NC(=O)[C@@H]2C[C@@H](F)CN2C(=O)C2(C(F)(F)F)CC(F)(F)C2)C2CC2)CCCCCCCN(C)C(=O)[C@H](Cc2cc(Cl)ccc2OC2CC2)N(C)C1=O [Example 314] ({cBuCO(3,3-F2-1-CF3)}-[Pro(trans-4-F)][Gly(cPr)][NMehhhLys(Me)]L[X152]; lactam 3-C)	0.02	0.03	0.01	0.01	0.14
CC(C)C[C@@H]1NC(=O)[C@@H](N(C)C(=O)[C@@H](NC(=O)[C@@H]2C[C@@H](F)CN2C(=O)C2(C(F)(F)F)CC(F)(F)C2)C2CC2)CCCCCCCNC(=O)[C@H](Cc2cc(F)ccc2C2=C[C@@H]3CC[C@H](C2)N3C(=O)C(C)C)N(C)C1=O [Example 315] ({cBuCO(3,3-F2-1-CF3)}-[Pro(trans-4-F)][Gly(cPr)][NMe(hhhLys)]L[X124]; lactam 3-C)	0.02	0.03	0.02	0.02	0.42
CC(C)C[C@@H]1NC(=O)[C@@H](N(C)C(=O)[C@@H](NC(=O)[C@@H]2C[C@@H](F)CN2C(=O)C2(C(F)(F)F)CC(F)(F)C2)C2CC2)CCCCCCCNC(=O)[C@H](Cc2cc(F)ccc2C2=C[C@H]3CC[C@@H](C2)N3C(=O)C(C)C)N(C)C1=O [Example 316] ({cBuCO(3,3-F2-1-CF3)}-[Pro(trans-4-F)][Gly(cPr)][NMe(hhhLys)]L[X7]; lactam 3-C)	0.02	0.02	0.01	0.01	0.29
CC(C)C[C@@H]1NC(=O)[C@@H](N(C)C(=O)[C@@H](NC(=O)[C@@H]2C[C@@H](F)CN2C(=O)C2(C(F)(F)F)CC(F)(F)C2)C2CC2)CCCCCCCN(C)C(=O)[C@H](Cc2cc(F)ccc2C2=C[C@@H]3CC[C@H](C2)N3C(=O)C(C)C)N(C)C1=O [Example 317] ({cBuCO(3,3-F2-1-CF3)}-[Pro(trans-4-F)][Gly(cPr)][NMehhhLys(Me)]L[X124]; lactam 3-C)	0.02	0.03	0.01	0.01	0.25
CC(C)C[C@@H]1NC(=O)[C@@H](N(C)C(=O)[C@@H](NC(=O)[C@@H]2C[C@@H](F)CN2C(=O)C2(C(F)(F)F)CC(F)(F)C2)C2CC2)CCCCCCCN(C)C(=O)[C@H](Cc2cc(Cl)ccc2N2CCOCC2)N(C)C1=O [Example 319] ({cBuCO(3,3-F2-1-CF3)}-[Pro(trans-4-F)][Gly(cPr)][NMehhhLys(Me)]L[X163]; lactam 3-C)	0.02	0.03	0.02	0.01	1.35
Cc1ncc(Cl)cc1C[C@H]1C(=O)N(C)CCCCCCC[C@H](N(C)C(=O)[C@@H](NC(=O)[C@@H]2C[C@@H](F)CN2C(=O)C2(C(F)(F)F)CC(F)(F)C2)C2CC2)C(=O)N[C@@H](CC(C)C)C(=O)N1C [Example 322] ({cBuCO(3,3-F2-1-CF3)}-[Pro(trans-4-F)][Gly(cPr)][NMehhhLys(Me)]L[X133]; lactam 3-C)	0.02	0.08	0.06	0.03	0.53
CC(C)C[C@@H]1NC(=O)[C@@H](N(C)C(=O)[C@@H](NC(=O)[C@@H]2C[C@@H](F)CN2C(=O)C2(C(F)(F)F)CC(F)(F)C2)C2CC2)CCCCCCCN(C)C(=O)[C@H](Cc2cc(Cl)cnc2Oc2cnn(C)c2)N(C)C1=O [Example 323] ({cBuCO(3,3-F2-1-CF3)}-[Pro(trans-4-F)][Gly(cPr)][NMehhhLys(Me)]L[X159]; lactam 3-C)	0.02	0.03	0.01	0.01	0.24
CC(=O)N1CC(Oc2ncc(Cl)cc2C[C@H]2C(=O)N(C)CCCCCCC[C@H](N(C)C(=O)[C@@H](NC(=O)[C@@H]3C[C@@H](F)CN3C(=O)C3(C(F)(F)F)CC(F)(F)C3)C3CC3)C(=O)N[C@@H](CC(C)C)C(=O)N2C)C1 [Example 324] ({cBuCO(3,3-F2-1-CF3)}-[Pro(trans-4-F)][Gly(cPr)][NMehhhLys(Me)]L[X190]; lactam 3-C)	0.02	0.06	0.08	0.04	0.52
CC(C)C[C@@H]1NC(=O)[C@@H](N(C)C(=O)[C@@H](NC(=O)[C@@H]2C[C@@H](F)CN2C(=O)C2(C(F)(F)F)CC(F)(F)C2)C2CC2)CCCCCCCNC(=O)[C@H](Cc2cc(F)ccc2C2=C[C@@H]3COC[C@H](C2)N3C(=O)C(C)C)N(C)C1=O [Example 325] ({cBuCO(3,3-F2-1-CF3)}-[Pro(trans-4-F)][Gly(cPr)][NMe(hhhLys)]L[X205]; lactam 3-C)	0.02	0.02	0.01	0.01	0.3
CC(C)C[C@@H]1NC(=O)[C@@H](N(C)C(=O)[C@@H](NC(=O)[C@@H]2C[C@@H](F)CN2C(=O)C2(C(F)(F)F)CC(F)(F)C2)C2CC2)CCCCCCCNC(=O)[C@H](Cc2cc(F)ccc2C2=C[C@H]3COC[C@@H](C2)N3C(=O)C(C)C)N(C)C1=O [Example 326] ({cBuCO(3,3-F2-1-CF3)}-[Pro(trans-4-F)][Gly(cPr)][NMe(hhhLys)]L[X126]; lactam 3-C)	0.02	0.02	0.01	0.01	0.15
CC(C)C[C@@H]1NC(=O)[C@@H](N(C)C(=O)[C@@H](NC(=O)[C@@H]2C[C@@H](F)CN2C(=O)C2(C(F)(F)F)CC(F)(F)C2)C2CC2)CCCCCCCN(C)C(=O)[C@H](Cc2cc(F)ccc2C2=C[C@H]3COC[C@@H](C2)N3C(=O)C(C)C)N(C)C1=O [Example 328] ({cBuCO(3,3-F2-1-CF3)}-[Pro(trans-4-F)][Gly(cPr)][NMehhhLys(Me)]L[X126]; lactam 3-C)	0.02	0.02	0.01	0.01	0.21
CC(C)C[C@@H]1NC(=O)[C@@H](N(C)C(=O)[C@@H](NC(=O)[C@@H]2C[C@@H](F)CN2C(=O)C2(C(F)(F)F)CC(F)(F)C2)C2CC2)CCCCCCCN(C)C(=O)[C@H](Cc2cc(F)ccc2C2=C[C@@H]3COC[C@H](C2)N3C(=O)C(C)C)N(C)C1=O [Example 329] ({cBuCO(3,3-F2-1-CF3)}-[Pro(trans-4-F)][Gly(cPr)][NMehhhLys(Me)]L[X205]; lactam 3-C)	0.02	0.02	0.01	0.01	0.25
Cc1ncc(Cl)cc1C[C@H]1C(=O)NCCCCCCC[C@H](N(C)C(=O)[C@@H](NC(=O)[C@@H]2C[C@@H](F)CN2C(=O)C2(C(F)(F)F)CC(F)(F)C2)C2CC2)C(=O)N[C@@H](CC(C)C)C(=O)N1C [Example 331, (2S,4R)—N—((S)-2-(((3S,6S,9S)-3-((5-chloro-2-methylpyridin-3-yl)methyl)-6-isobutyl-4-methyl-2,5,8-trioxo-1,4,7-triazacyclohexadecan-9-yl)(methyl)amino)-1-cyclopropyl-2-oxoethyl)-1-(3,3-difluoro-1-(trifluoromethyl)cyclobutane-1-carbonyl)-4-fluoropyrrolidine-2-carboxamide] ({cBuCO(3,3-F2-1-CF3)}-[Pro(trans-4-F)][Gly(cPr)][NMe(hhhLys)]L[X133]; lactam 3-C)	0.02	0.17	0.05	0.06	1.14
CC(C)C[C@@H]1NC(=O)[C@@H](N(C)C(=O)[C@@H](NC(=O)[C@@H]2C[C@@H](F)CN2C(=O)[C@@]2(C(F)(F)F)CCCCO2)C2CC2)CCCCCCCN(C)C(=O)[C@H](Cc2cc(Cl)cnc2Cc2cnn(C)c2)N(C)C1=O [Example 332] ({Oxane2carbonyl(2R-CF3)}-[Pro(trans-4-F)][Gly(cPr)][NMehhhLys(Me)]L[X206]; lactam 3-C)	0.02	0.02	0.01	0.01	0.1
CC(C)C[C@@H]1NC(=O)[C@@H](N(C)C(=O)[C@@H](NC(=O)[C@@H]2C[C@@H](F)CN2C(=O)C2(C(F)(F)F)CC(F)(F)C2)C2CC2)CCCCCCCNC(=O)[C@H](Cc2cc(Cl)ccc2-c2ccc(N3CCOCC3)cc2)N(C)C1=O [Example 333] ({cBuCO(3,3-F2-1-CF3)}-[Pro(trans-4-F)][Gly(cPr)][NMe(hhhLys)]L[NMePhe(2-(4-MorPh),5-Cl)]; lactam 3-C)	0.02	0.02	0.01	0.01	1.15
CC(C)C[C@@H]1NC(=O)[C@@H](N(C)C(=O)[C@@H](NC(=O)[C@@H]2C[C@@H](F)CN2C(=O)C2(C(F)(F)F)CC(F)(F)C2)C2CC2)CCCCCCCNC(=O)[C@H](Cc2cc(F)ccc2-c2ccc(N3CCOCC3)cc2)N(C)C1=O [Example 334] ({cBuCO(3,3-F2-1-CF3)}-[Pro(trans-4-F)][Gly(cPr)][NMe(hhhLys)]L[X87]; lactam 3-C)	0.02	0.02	0.01	0.01	0.19

— patent publication US20240408169A1 (priority 2023, published 2024)
